From US8629112B2, “Template-fixed peptidomimetics with CXCR7 modulating activity” (priority 2010, dated 2014)
Square brackets hold non-standard residues; d marks the D form. Peptide text beside a SMILES is read from it. 1Nal = N[C@@H](Cc1cccc2ccccc12)C(=O)O; d1Nal = N[C@H](Cc1cccc2ccccc12)C(=O)O; Tic = O=C(O)[C@@H]1Cc2ccccc2CN1; dPip = O=C(O)[C@H]1CCCCN1; Aze = O=C(O)[C@@H]1CCN1; Dab = NCC[C@H](N)C(=O)O; Abu = CC[C@H](N)C(=O)O

Molecular target: T1, CXCR7 (Homo sapiens, UniProt P25106)
T1 construct: host or cells: CHO (PathHunter CHO-CXCR7 β-arrestin cells)
T1 sequence (P25106 whole entry): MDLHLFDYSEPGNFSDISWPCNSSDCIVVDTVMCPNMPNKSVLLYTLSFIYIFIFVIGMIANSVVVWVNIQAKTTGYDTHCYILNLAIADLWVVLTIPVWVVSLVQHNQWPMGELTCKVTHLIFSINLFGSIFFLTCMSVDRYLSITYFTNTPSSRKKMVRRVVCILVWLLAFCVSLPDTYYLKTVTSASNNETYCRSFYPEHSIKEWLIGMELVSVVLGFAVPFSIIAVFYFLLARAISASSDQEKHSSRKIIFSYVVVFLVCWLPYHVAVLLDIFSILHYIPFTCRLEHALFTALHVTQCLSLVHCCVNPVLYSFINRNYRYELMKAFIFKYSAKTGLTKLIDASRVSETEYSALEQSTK
Experiment: CXCR7 β-arrestin recruitment assay (PathHunter CHO-CXCR7, agonistic assay)
Type: cell-based
Details: CHO CXCR7 β-arrestin cells, agonistic assay, 90 min at 37° C., chemiluminescence; read-out: β-Arrestin EC50
Procedure: Lyophilized peptides were weighed on a Microbalance (Mettler MX5) and dissolved in DMSO to a final concentration of 10 mM unless otherwise stated. Stock solutions were kept at +4° C., and protected from light.
2.2 CXCR7 β-Arrestin Recruitment Assay
The PathHunter CHO-CXCR7 (DiscoverX) assay was performed according to the manufacturer's protocol. In brief, CHO CXCR7 β-arrestin cells were seeded at a density of 5000 cells per well in 40 μl of F12 medium in a 96-half volume well black culture plate and incubated overnight at 37° C. in a humidified atmosphere with 5% CO2. The next day, serial dilutions of PEM compounds have been prepared in DMSO and subsequently diluted in HBSS buffer containing 0.1% BSA.
For agonistic assay, 10 μl of compound solution or a solution of stromal cell-derived factor-1 (SDF-1) as positive control was added to the cells with a final DMSO concentration of 1% (v/v). The plate was incubated for 90 min at 37° C. in 5% CO2 incubator with gentle shaking (300 rpm) before addition of 40 ul of detection reagent per well. Reaction was developed 90 min at room temperature in the dark with shaking, and chemiluminescence was measured with a Topcount (Perkin Elmer) luminescence counter.

| SMILES | EC50 |
| --- | --- |
| NCC[C@@H]1NC(=O)[C@H](Cc2c[nH]c3ccccc23)NC(=O)[C@@H](Cc2ccccc2)NC(=O)[C@H](Cc2c[nH]c3ccccc23)NC(=O)[C@@H]2Cc3ccccc3CN2C(=O)[C@H]2CCCN2C1=O [compound 22, cyclo(-Trp-^DPhe-Trp-Dab-^DPro-Tic-)] (cyclo([Dab][dP][Tic]W[dF]W)) | 12.6 ± 1.6 nM |
| O=C1N[C@@H](Cc2ccc(O)cc2)C(=O)N2CCC[C@@H]2C(=O)N2Cc3ccccc3C[C@H]2C(=O)N[C@@H](Cc2c[nH]c3ccccc23)C(=O)N[C@H](Cc2ccccc2)C(=O)N[C@H]1Cc1c[nH]c2ccccc12 [compound 24, cyclo(-Trp-^DPhe-Trp-Tyr-^DPro-Tic-)] (cyclo([Tic]W[dF]WY[dP])) | 94.5 ± 54.1 nM |
| N=C(N)NCCC[C@@H]1NC(=O)[C@H](Cc2c[nH]c3ccccc23)NC(=O)[C@@H](CCCNC(=N)N)NC(=O)[C@H](Cc2cccc3ccccc23)NC(=O)[C@@H]2Cc3ccccc3CN2C(=O)[C@H]2CCCN2C1=O [compound 28, cyclo(-1Nal-^DArg-Trp-Arg-^DPro-Tic-)] (cyclo([1Nal][dR]WR[dP][Tic])) | 280 ± 115 nM |
| CC[C@H](C)[C@@H]1NC(=O)[C@@H](Cc2c[nH]cn2)NC(=O)[C@H](Cc2cccc3ccccc23)NC(=O)[C@@H]2Cc3ccccc3CN2C(=O)[C@H]2CCCN2C(=O)[C@H](CCCNC(=N)N)NC1=O [compound 29, cyclo(-1Nal-^DHis-Ile-Arg-^DPro-Tic-)] (cyclo([1Nal][dH]IR[dP][Tic])) | 347 ± 110 nM |
| CC[C@@H]1NC(=O)[C@@H]2Cc3ccccc3CN2C(=O)[C@H]2CCCN2C(=O)[C@H](Cc2c[nH]c3ccccc23)NC(=O)[C@H](CCCNC(=N)N)NC(=O)[C@@H](CCCNC(=N)N)NC1=O [compound 30, cyclo(-Abu-^DArg-Arg-Trp-^DPro-Tic-)] (cyclo([Abu][dR]RW[dP][Tic])) | 97.5 ± 6.3 nM |
| N=C(N)NCCC[C@@H]1NC(=O)[C@H](Cc2c[nH]cn2)NC(=O)[C@@H](Cc2c[nH]c3ccccc23)NC(=O)[C@H](Cc2c[nH]cn2)NC(=O)[C@@H]2Cc3ccccc3CN2C(=O)[C@H]2CCCN2C1=O [compound 31, cyclo(-His-^DTrp-His-Arg-^DPro-Tic-)] (cyclo(HR[dP][Tic]H[dW])) | 226 ± 13.2 nM |
| CC[C@H](C)[C@@H]1NC(=O)[C@@H]2Cc3ccccc3CN2C(=O)[C@H]2CCCN2C(=O)[C@H](CCCNC(=N)N)NC(=O)[C@H](Cc2c[nH]c3ccccc23)NC(=O)[C@@H](Cc2c[nH]cn2)NC1=O [compound 32, cyclo(-Ile-^DHis-Trp-Arg-^DPro-Tic-)] (cyclo(I[dH]WR[dP][Tic])) | 70.8 ± 14.3 nM |
| CC[C@H](C)[C@@H]1NC(=O)[C@@H](CCCNC(=N)N)NC(=O)[C@H]([C@@H](C)CC)NC(=O)[C@@H]2Cc3ccccc3CN2C(=O)[C@H]2CCCN2C(=O)[C@H](CCCNC(=N)N)NC1=O [compound 33, cyclo(-Ile-^DArg-Ile-Arg-^DPro-Tic-)] (cyclo(IR[dP][Tic]I[dR])) | 34.3 ± 3.6 nM |
| CC[C@H](C)[C@@H]1NC(=O)[C@@H]2Cc3ccccc3CN2C(=O)[C@H]2CCCN2C(=O)[C@H](CCCNC(=N)N)NC(=O)[C@H](Cc2c[nH]cn2)NC(=O)[C@@H](Cc2c[nH]c3ccccc23)NC1=O [compound 34, cyclo(-Ile-^DTrp-His-Arg-^DPro-Tic-)] (cyclo(HR[dP][Tic]I[dW])) | 317 ± 360 nM |
| N=C(N)NCCC[C@@H]1NC(=O)[C@@H]2Cc3ccccc3CN2C(=O)[C@H]2CCCN2C(=O)[C@H](CCCNC(=N)N)NC(=O)[C@H](Cc2c[nH]cn2)NC(=O)[C@@H](Cc2c[nH]c3ccccc23)NC1=O [compound 35, cyclo(-Arg-^DTrp-His-Arg-^DPro-Tic-)] (cyclo(HR[dP][Tic]R[dW])) | 234 ± 132 nM |
| N=C(N)NCCC[C@@H]1NC(=O)[C@@H]2Cc3ccccc3CN2C(=O)[C@H]2CCCN2C(=O)[C@H](CCCNC(=N)N)NC(=O)[C@H](Cc2c[nH]c3ccccc23)NC(=O)[C@@H](Cc2c[nH]cn2)NC1=O [compound 36, cyclo(-Arg-^DHis-Trp-Arg-^DPro-Tic-)] (cyclo(R[dH]WR[dP][Tic])) | 144 ± 136 nM |
| N=C(N)NCCC[C@@H]1NC(=O)[C@H](Cc2c[nH]cn2)NC(=O)[C@@H](CCCNC(=N)N)NC(=O)[C@H](Cc2c[nH]c3ccccc23)NC(=O)[C@@H]2Cc3ccccc3CN2C(=O)[C@H]2CCCN2C1=O [compound 37, cyclo(-Trp-^DArg-His-Arg-^DPro-Tic-)] (cyclo(HR[dP][Tic]W[dR])) | 348 ± 55.6 nM |
| N=C(N)NCCC[C@H]1NC(=O)[C@H](Cc2c[nH]c3ccccc23)NC(=O)[C@@H]2Cc3ccccc3CN2C(=O)[C@H]2CCCN2C(=O)[C@H](Cc2c[nH]c3ccccc23)NC(=O)[C@H](Cc2c[nH]cn2)NC1=O [compound 38, cyclo(-Trp-^DArg-His-Trp-^DPro-Tic-)] (cyclo(HW[dP][Tic]W[dR])) | 217 ± 12.5 nM |
| O=C1N[C@@H](Cc2c[nH]c3ccccc23)C(=O)N2CCC[C@@H]2C(=O)N2Cc3ccccc3C[C@H]2C(=O)N[C@@H](Cc2c[nH]cn2)C(=O)N[C@H](Cc2cccc3ccccc23)C(=O)N[C@H]1Cc1c[nH]cn1 [compound 39, cyclo(-His-^D1Nal-His-Trp-^DPro-Tic-)] (cyclo(HW[dP][Tic]H[d1Nal])) | 269 ± 80.1 nM |
| N=C(N)NCCC[C@@H]1NC(=O)[C@H](Cc2c[nH]c3ccccc23)NC(=O)[C@@H](Cc2ccccc2)NC(=O)[C@H](Cc2c[nH]c3ccccc23)NC(=O)[C@@H]2CCCN2C(=O)[C@H]2CCCCN2C1=O [compound 41, cyclo(-Trp-^DPhe-Trp-Arg-^DPip-Pro-)] (cyclo(PW[dF]WR[dPip])) | 78.7 ± 0.9 nM |
| CC[C@H](C)[C@@H]1NC(=O)[C@@H](CCCNC(=N)N)NC(=O)[C@H](Cc2cccc3ccccc23)NC(=O)[C@@H]2CCN2C(=O)[C@H]2CCCN2C(=O)[C@H](CCCNC(=N)N)NC1=O [compound 43, cyclo(-1Nal-^DArg-Ile-Arg-^DPro-Azt-)] (cyclo([1Nal][dR]IR[dP][Aze])) | 41.2 ± 8.3 nM |
| N=C(N)NCCC[C@@H]1NC(=O)[C@H](Cc2c[nH]c3ccccc23)NC(=O)[C@@H](CCCNC(=N)N)NC(=O)[C@H](Cc2cccc3ccccc23)NC(=O)[C@@H]2CCN2C(=O)[C@H]2CCCN2C1=O [compound 44, cyclo(-1Nal-^DArg-Trp-Arg-^DPro-Azt-)] (cyclo([1Nal][dR]WR[dP][Aze])) | 146 ± 81.8 nM |
| N=C(N)NCCC[C@@H]1NC(=O)[C@H](Cc2ccc(O)cc2)NC(=O)[C@@H](Cc2c[nH]cn2)NC(=O)[C@H](Cc2cccc3ccccc23)NC(=O)[C@@H]2CCN2C(=O)[C@H]2CCCN2C1=O [compound 45, cyclo(-1Nal-^DHis-Tyr-Arg-^DPro-Azt-)] (cyclo([1Nal][dH]YR[dP][Aze])) | 44.4 ± 25.4 nM |
| CC[C@H](C)[C@@H]1NC(=O)[C@H](Cc2c[nH]c3ccccc23)NC(=O)[C@@H](CCCNC(=N)N)NC(=O)[C@H](Cc2c[nH]c3ccccc23)NC(=O)[C@@H]2CCN2C(=O)[C@H]2CCCN2C1=O [compound 46, cyclo(-Trp-^DArg-Trp-Ile-^DPro-Azt-)] (cyclo([Aze]W[dR]WI[dP])) | 208 ± 50.2 nM |
| CC[C@H](C)[C@@H]1NC(=O)[C@@H](Cc2c[nH]cn2)NC(=O)[C@H](Cc2c[nH]c3ccccc23)NC(=O)[C@@H]2CCN2C(=O)[C@H]2CCCN2C(=O)[C@H](CCCNC(=N)N)NC1=O [compound 47, cyclo(-Trp-^DHis-Ile-Arg-^DPro-Azt-)] (cyclo([Aze]W[dH]IR[dP])) | 344.5 ± 0.6 nM |
| N=C(N)NCCC[C@@H]1NC(=O)[C@H](Cc2c[nH]c3ccccc23)NC(=O)[C@@H](Cc2c[nH]cn2)NC(=O)[C@H](Cc2c[nH]c3ccccc23)NC(=O)[C@@H]2CCN2C(=O)[C@H]2CCCN2C1=O [compound 48, cyclo(-Trp-^DHis-Trp-Arg-^DPro-Azt-)] (cyclo([Aze]W[dH]WR[dP])) | 342 ± 46.8 nM |
| CC[C@H](C)[C@@H]1NC(=O)[C@@H](CCCNC(=N)N)NC(=O)[C@H](Cc2c[nH]c3ccccc23)NC(=O)[C@@H]2CCN2C(=O)[C@H]2CCCN2C(=O)[C@H](CCCNC(=N)N)NC1=O [compound 50, cyclo(-Trp-^DArg-Ile-Arg-^DPro-Azt-)] (cyclo([Aze]W[dR]IR[dP])) | 47.7 ± 21.9 nM |
| N=C(N)NCCC[C@@H]1NC(=O)[C@H](Cc2c[nH]c3ccccc23)NC(=O)[C@@H](CCCNC(=N)N)NC(=O)[C@H](Cc2c[nH]c3ccccc23)NC(=O)[C@@H]2CCN2C(=O)[C@H]2CCCN2C1=O [compound 51, cyclo(-Trp-^DArg-Trp-Arg-^DPro-Azt-)] (cyclo([Aze]W[dR]WR[dP])) | 170 ± 22.5 nM |
